Laboratory results taken from patent US20250034216A1, “STEREOSELECTIVE COVALENT LIGANDS FOR ONCOGENIC AND IMMUNOLOGICAL PROTEINS” (The Scripps Research Institute, priority 2021, published 2025).

Assays:
[1] = target: T1, recombinant FLAG-PSME1 (PSME1_C22) (Homo sapiens, UniProt Q06323); experiment: Gel-based ABPP for PSME1 cysteine engagement; type: binding; details: HEK293T lysates expressing FLAG-PSME1, in vitro, then 2.5 μM MY-11B 30 min; read-out: IC50 for engaging PSME1_C22 (competition against MY-11B labeling)
T1 construct: FLAG (C); expressed in transfected cells; host or cells: HEK293T (lysate treated in vitro)
Method: C-terminally FLAG-tagged PSME1 WT or C22A were transiently expressed in HEK293T cells, harvested 48 hours later, then cells were divided into aliquots, flash frozen and stored at −80 C. On the day of the experiment, an aliquot of cells were thawed, lysed by sonication in ice-cold PBS supplemented with cOmplete protease inhibitors (1 tablet/10 mL of PBS). normalized to 2.0 mg/mL, and divided into 25 μL aliquots. 1 μL of DMSO or compound (25× stock) was incubated with lysates for 1.5 hours at RT, followed by incubation with 1 μL of 62.5 μM MY-11B click probe (final concentration […]) for an additional 30 minutes. Reagents for the CuAAC click reaction were pre-mixed prior to addition to the samples. After 1 hour of click labeling, 4×SDS running buffer was added to samples, which were then analyzed by SDS-PAGE. ImageJ was used to quantify rhodamine band intensities, and GraphPad PRISM Version 9.0.0 was used to generate IC50 curves (four-parameter variable slope least squares regression).

[2] = tested on: SIINFEKL presentation in E.G7-Ova cells; experiment: FACS analysis with citric acid wash; type: cell-based, mouse; details: 4 h treatment, recovery up to 4 h
Method: E.G7-Ova cells (2 million/mL) were treated with compounds for 4 hours, washed with PBS, and then washed with 1 mL of 131 mM citric acid for 2 minutes, quenched with 1 mL 66 mM NaH2PO4, and then washed with PBS 3 times. Cells were then resuspended in warm RPMI and allowed to recover for the indicated period, after which cells were washed with PBS and transferred to 96 well plates for staining. Each well was washed with 200 μL PBS, and then stained for 20 minutes with 50 μL of staining solution: 1:1000 fixable near-IR LIVE/DEAD stain (Invitrogen) and 1:200 dilution of anti-SIINFEKL (BioLegend) or anti-Kb (BioLegend) antibody in FACS buffer (2% FBS in PBS supplemented with PenStrep and sterile filtered). Additional wells were used as unstained or singly-stained controls. After staining, cells were washed with PBS, then fixed in 200 μL 4% paraformaldehyde in PBS for 15 minutes. Cells were resuspended in 75 μL FACS buffer and analyzed on a Novocyte flow cytometer. The corresponding data in FIG. 2J are presented as the average percentage of median fluorescence intensity relative to DMSO treated control±SD from n=4 replicates. The corresponding data in FIG. 2K are presented as the average percentage of MFI relative to DMSO treated control±SD from n=3 replicates. Statistical analysis was performed using GraphPad PRISM Version 9.0.0.

[3] = tested on: SF3B1 interacting proteins; experiment: SF3B1 co-immunoprecipitation-MS; type: cell-based, human; details: HEK293T cells, 5 μM WX-02-23 or 10 nM pladienolide B, 3 h
Method: HEK293T cells were treated in situ with DMSO, 5 μM of WX-02-23/WX-02-43, or 10 nM pladienolide B for 3 hours. Cells were harvested, washed with ice-cold PBS, and lysed in ColP lysis buffer (0.5% NP-40, 100 mM EPPS, 150 mM NaCl, cOmplete protease inhibitor). Lysates centrifuged at 16,000 g for 3 minutes, normalized to 2.0 mg/mL and 500 μL of each lysate was aliquoted to a clean eppendorf tube.
Lysates were incubated with 5 μL of anti-IgG or anti-SF3B1 (CST) for 2 hours at 4 C, followed by 1 hour with 25 μL of protein-A agarose beads. Bead were washed twice with ColP lysis buffer, and then twice with 100 mM EPPS, followed by elution with 8 M urea in EPPS at 65 C for 10 min. […] Samples were then trypsinized at 37 C overnight (2 ug of trypsin per sample), then TMT labeled and desalted.

SF3B1 C1111 = target: T2, SF3B1 C1111 (Homo sapiens, UniProt O75533+Q7RTV0); experiment: Parallel reaction monitoring of IA-DTB labeled SF3B1 peptides; type: binding; details: 22Rv1 cells
T2 construct: Cysteine engagement data from 22Rv1 cells treated; endogenous in cells; host or cells: 22Rv1
Method: Dry peptide samples were reconstituted in a water/acetonitrile (85:15) mixture containing 0.1% formic acid (100 μl) and 15 μl was injected on to an EASY-Spray C18 loading column (5 μm particle size, 100 μm×2 cm; Fisher Scientific, DX164564) and resolved on a custom analytical column (2 μM particle size, 75 μm×15 cm) using a Dionex Ultimate 3000 nano-LC (Thermo Fisher Scientific). Peptides were separated over a 60-min gradient of 15 to 33% acetonitrile (0.1% formic acid) and analyzed on a Q-Exactive instrument (Thermo Fisher Scientific) using a parallel reaction monitoring method targeting the SF3B1 peptide containing C1111 (amino acids 1110-1149, missed tryptic, +3 charge state). Selected precursor ions were isolated and fragmented by high-energy collision dissociation and fragments were detected in the Orbitrap at 17,500 resolution.
Raw data files were uploaded analyzed in Skyline (v.21.1.0.278) to determine the abundance of each peptide in vehicle-treated samples relative to inhibitor-treated samples. Peptide quantification was performed by calculating the sum of the peak areas corresponding to six fragment ions from each peptide. The peptides and fragment ions were preselected from in-house reference spectral libraries acquired in data-dependent acquisition mode to identify authentic spectra for each peptide.

T2 sequence (O75533 whole entry): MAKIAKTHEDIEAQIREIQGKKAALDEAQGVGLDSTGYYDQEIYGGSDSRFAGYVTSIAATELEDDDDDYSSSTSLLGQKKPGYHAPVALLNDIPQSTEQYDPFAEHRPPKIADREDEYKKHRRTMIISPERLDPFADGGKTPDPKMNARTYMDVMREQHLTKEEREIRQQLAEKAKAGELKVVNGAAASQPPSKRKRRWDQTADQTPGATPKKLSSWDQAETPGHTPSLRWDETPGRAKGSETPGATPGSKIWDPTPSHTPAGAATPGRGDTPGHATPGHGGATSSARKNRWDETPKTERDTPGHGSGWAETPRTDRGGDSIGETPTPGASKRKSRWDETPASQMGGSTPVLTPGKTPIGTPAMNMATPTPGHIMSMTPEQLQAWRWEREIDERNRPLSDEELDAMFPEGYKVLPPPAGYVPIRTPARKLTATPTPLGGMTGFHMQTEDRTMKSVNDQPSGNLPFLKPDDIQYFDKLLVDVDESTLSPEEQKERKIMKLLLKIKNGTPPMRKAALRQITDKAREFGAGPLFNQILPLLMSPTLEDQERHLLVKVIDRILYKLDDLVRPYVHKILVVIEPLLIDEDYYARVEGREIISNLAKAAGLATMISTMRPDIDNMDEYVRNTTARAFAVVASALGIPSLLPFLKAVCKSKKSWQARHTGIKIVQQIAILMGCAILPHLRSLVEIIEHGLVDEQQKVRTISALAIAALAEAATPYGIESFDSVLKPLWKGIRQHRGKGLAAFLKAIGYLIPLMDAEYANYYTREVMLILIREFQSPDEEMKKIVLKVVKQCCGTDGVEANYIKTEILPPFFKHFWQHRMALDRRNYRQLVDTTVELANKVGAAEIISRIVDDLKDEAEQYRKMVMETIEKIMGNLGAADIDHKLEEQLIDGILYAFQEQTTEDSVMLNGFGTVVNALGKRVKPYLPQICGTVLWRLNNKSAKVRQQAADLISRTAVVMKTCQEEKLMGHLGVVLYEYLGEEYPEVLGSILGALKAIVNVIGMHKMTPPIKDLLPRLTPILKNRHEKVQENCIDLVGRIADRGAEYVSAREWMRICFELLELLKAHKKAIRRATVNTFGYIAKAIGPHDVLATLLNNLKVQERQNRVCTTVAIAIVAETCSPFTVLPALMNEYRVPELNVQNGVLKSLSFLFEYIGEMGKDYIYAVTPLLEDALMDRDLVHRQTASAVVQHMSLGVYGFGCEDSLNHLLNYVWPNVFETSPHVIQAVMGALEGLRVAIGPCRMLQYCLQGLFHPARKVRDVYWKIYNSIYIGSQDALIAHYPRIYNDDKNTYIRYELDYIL
T2 sequence (Q7RTV0 whole entry): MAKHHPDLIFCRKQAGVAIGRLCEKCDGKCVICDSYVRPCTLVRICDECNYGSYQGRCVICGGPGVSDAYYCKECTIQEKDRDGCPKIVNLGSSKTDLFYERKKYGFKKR
T2 sequence (Q15393 whole entry partner): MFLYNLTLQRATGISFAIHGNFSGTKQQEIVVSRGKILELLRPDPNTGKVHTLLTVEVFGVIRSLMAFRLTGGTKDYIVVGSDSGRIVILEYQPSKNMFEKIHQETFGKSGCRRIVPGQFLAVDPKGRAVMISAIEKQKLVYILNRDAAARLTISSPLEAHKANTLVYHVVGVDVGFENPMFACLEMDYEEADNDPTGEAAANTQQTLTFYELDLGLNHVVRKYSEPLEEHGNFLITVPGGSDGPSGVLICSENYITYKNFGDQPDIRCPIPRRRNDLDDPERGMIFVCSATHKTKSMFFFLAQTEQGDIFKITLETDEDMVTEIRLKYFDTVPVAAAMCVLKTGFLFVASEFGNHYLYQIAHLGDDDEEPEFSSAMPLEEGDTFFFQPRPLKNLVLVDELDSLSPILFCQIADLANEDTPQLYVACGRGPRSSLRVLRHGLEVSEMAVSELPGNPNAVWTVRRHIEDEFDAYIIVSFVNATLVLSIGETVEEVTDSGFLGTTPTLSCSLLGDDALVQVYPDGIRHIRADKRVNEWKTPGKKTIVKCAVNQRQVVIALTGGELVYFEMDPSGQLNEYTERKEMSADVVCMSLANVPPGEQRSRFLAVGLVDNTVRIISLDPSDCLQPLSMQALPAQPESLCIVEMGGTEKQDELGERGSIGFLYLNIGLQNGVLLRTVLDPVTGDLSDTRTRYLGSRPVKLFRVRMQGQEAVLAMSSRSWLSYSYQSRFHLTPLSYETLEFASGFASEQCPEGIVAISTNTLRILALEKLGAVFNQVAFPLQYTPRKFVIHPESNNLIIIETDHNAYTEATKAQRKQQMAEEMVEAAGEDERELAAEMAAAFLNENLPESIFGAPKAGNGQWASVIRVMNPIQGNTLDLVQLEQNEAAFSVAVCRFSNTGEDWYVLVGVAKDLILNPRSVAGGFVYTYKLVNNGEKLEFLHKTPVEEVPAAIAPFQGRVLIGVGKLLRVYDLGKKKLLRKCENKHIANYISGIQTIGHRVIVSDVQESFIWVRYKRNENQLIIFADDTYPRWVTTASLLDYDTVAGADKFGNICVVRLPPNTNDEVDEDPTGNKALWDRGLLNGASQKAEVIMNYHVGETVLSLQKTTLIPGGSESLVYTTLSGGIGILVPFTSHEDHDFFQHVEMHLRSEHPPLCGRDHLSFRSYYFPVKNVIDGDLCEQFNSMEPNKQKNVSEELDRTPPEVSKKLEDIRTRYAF
T2 sequence (Q9BWJ5 whole entry partner): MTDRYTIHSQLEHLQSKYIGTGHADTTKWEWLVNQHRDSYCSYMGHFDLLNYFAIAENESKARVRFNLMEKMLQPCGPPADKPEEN
T1 sequence (Q06323 whole entry): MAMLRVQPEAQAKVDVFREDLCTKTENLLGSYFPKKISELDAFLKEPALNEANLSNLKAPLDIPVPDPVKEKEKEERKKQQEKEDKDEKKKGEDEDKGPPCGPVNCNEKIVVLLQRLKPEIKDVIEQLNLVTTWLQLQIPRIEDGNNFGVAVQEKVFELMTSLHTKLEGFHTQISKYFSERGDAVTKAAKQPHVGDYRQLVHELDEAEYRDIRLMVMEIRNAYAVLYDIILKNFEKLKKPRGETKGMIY

Structure (SMILES) | IC50 [1] [µM] | SIINFEKL presentation after acid wash [2] | SF3B1 interactions (DDX42 association) [3] | IA-DTB labeling of other cysteines in SF3B1 (SF3B1 C1111) | IA-DTB reaction with SF3B1 C1111 (SF3B1 C1111; 20 μM, 24 h)
CC#CC(=O)N1C[C@H](c2ccc(Br)cc2)[C@@H]1C(=O)Nc1cccc2cccnc12 [MY-45B, (2R,3S)-3-(4-bromophenyl)-1-(but-2-ynoyl)-N-(quinolin-8-yl)azetidine-2-carboxamide] | ~0.4 | time- and concentration-dependent reduction in SIINFEKL presentation | – | – | –
C=CC(=O)N1[C@H](c2ccc3c(c2)OCO3)c2[nH]c3ccccc3c2C[C@H]1C(=O)N1CCOCC1 [WX-02-23, 1-((1R,3S)-1-(benzo[d][1,3]dioxol-S-yl)-3-(morpholine-4-carbonyl)-1,3,4,9-tetrahydro-2H-pyrido [3,4-b]indol-2-yl)prop-2-en-1-one] | – | – | much greater extent | did not affect other cysteines in SF3B1 | stereoselectively blocked
